Assay results taken from the supplement of paper PMC4862054.

Legend:
Details in all cases: incubation time: 72 h
[1] = test system: HDQ-P1; assay: normalised viability (% of control), CellTiter-Blue; higher = more viable cells (100 = DMSO, 0 = benzethonium chloride kill control)
Description: (§1)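 DSRT, CellTiter-Blue viability, 72 h incubation. Signal is normalised to DMSO and benzethonium chloride controls. Value is the normalised response at dose 1.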

[2] = test system: DU-4475; assay: as above
Description: as §1

[3] = test system: MDA-MB-436; assay: as above
Description: as §1

[4] = test system: Hs578T; assay: as above
Description: as §1

[5] = test system: CAL-85-1; assay: as above
Description: as §1

[6] = test system: CAL-148; assay: as above
Description: as §1

[7] = test system: HCC1143; assay: as above
Description: as §1

[8] = test system: MDA-MB-231; assay: as above
Description: as §1

[9] = test system: HCC1599; assay: as above
Description: as §1

[10] = test system: MFM-223; assay: as above
Description: as §1

[11] = test system: BT-549; assay: as above
Description: as §1

[12] = test system: CAL-51; assay: as above
Description: as §1

[13] = test system: MDA-MB-468; assay: as above
Description: as §1

[14] = test system: BT-474; assay: as above
Description: as §1

[15] = test system: HCC1937; assay: as above
Description: as §1

[16] = test system: CAL-120; assay: as above
Description: as §1

[17] = test system: MDA-MB-453; assay: as above
Description: as §1

[18] = test system: SK-BR-3; assay: as above
Description: as §1

[19] = test system: HDQ-P1; assay: normalised response (% of control), CellTiter-Glo; higher = more viable cells (100 = DMSO, 0 = benzethonium chloride kill control)
How it was run: (§2)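 The table gives the normalised signal for a single concentration in each entry. Breast cancer cell lines were seeded (20 µl suspension) into 384-well plates holding compound at 5 concentrations in 10-fold steps over a compound-specific 10,000-fold range and incubated 72 h, then read for CellTox Green fluorescence (485/520 nm) and CellTiter-Glo luminescence. Normalisation on each plate used 0.1 % DMSO (100) and a positive kill control (0).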

[20] = test system: DU-4475; assay: as above
How it was run: as §2

[21] = test system: MDA-MB-436; assay: as above
How it was run: as §2

[22] = test system: Hs578T; assay: as above
How it was run: as §2

[23] = test system: CAL-85-1; assay: as above
How it was run: as §2

[24] = test system: CAL-148; assay: as above
How it was run: as §2

[25] = test system: HCC1143; assay: as above
How it was run: as §2

[26] = test system: MDA-MB-231; assay: as above
How it was run: as §2

[27] = test system: HCC1599; assay: as above
How it was run: as §2

[28] = test system: MFM-223; assay: as above
How it was run: as §2

[29] = test system: BT-549; assay: as above
How it was run: as §2

[30] = test system: CAL-51; assay: as above
How it was run: as §2

[31] = test system: MCF-10A; assay: as above
How it was run: as §2

[32] = test system: MDA-MB-468; assay: as above
How it was run: as §2

[33] = test system: BT-474; assay: as above
How it was run: as §2

[34] = test system: HCC1937; assay: as above
How it was run: as §2

[35] = test system: CAL-120; assay: as above
How it was run: as §2

[36] = test system: MDA-MB-453; assay: as above
How it was run: as §2

[37] = test system: SK-BR-3; assay: as above
How it was run: as §2

| Compound | normalised viability [1] | normalised viability [2] | normalised viability [3] | normalised viability [4] | normalised viability [5] | normalised viability [6] | normalised viability [7] | normalised viability [8] | normalised viability [9] | normalised viability [10] | normalised viability [11] | normalised viability [12] | normalised viability [13] | normalised viability [14] | normalised viability [15] | normalised viability [16] | normalised viability [17] | normalised viability [18] | normalised response [19] | normalised response [20] | normalised response [21] | normalised response [22] | normalised response [23] | normalised response [24] | normalised response [25] | normalised response [26] | normalised response [27] | normalised response [28] | normalised response [29] | normalised response [30] | normalised response [31] | normalised response [32] | normalised response [33] | normalised response [34] | normalised response [35] | normalised response [36] | normalised response [37] |
| --- | --- | --- | --- | --- | --- | --- | --- | --- | --- | --- | --- | --- | --- | --- | --- | --- | --- | --- | --- | --- | --- | --- | --- | --- | --- | --- | --- | --- | --- | --- | --- | --- | --- | --- | --- | --- | --- |
| Cc1ccc(F)c(NC(=O)Nc2ccc(-c3cccc4[nH]nc(N)c34)cc2)c1 [Linifanib] (0.1 nM) | 115% | 110% | 149% | 99.3% | 94.7% | 117% | 116% | 100% | 110% | 103% | 109% | 101% | 130% | 116% | 92.4% | 95.4% | 112% | 107% | 102% | 105% | 107% | 100% | 98.8% | 112% | 100% | 102% | 115% | 105% | 97% | 105% | 105% | 102% | 107% | 102% | 101% | 122% | 112% |
| S=c1[nH]cnc2nc[nH]c12 [Mercaptopurine] (1 nM) | 106% | 101% | 80.8% | 130% | 84% | 116% | 97.6% | 103% | 97.3% | 95.9% | 107% | 104% | 98.7% | 105% | 93.6% | 96.6% | 105% | 104% | 108% | 92.4% | 97.2% | 103% | 96.9% | 91.3% | 97.8% | 98.2% | 98.9% | 97.3% | 108% | 122% | 95.3% | 90.8% | 90.2% | 99.8% | 99.5% | 109% | 95.7% |
| Clc1ccc(C(c2ccccc2Cl)C(Cl)Cl)cc1 (stereo not drawn) [Mitotane] (1 nM) | 112% | 104% | 90.9% | 118% | 92.4% | 117% | 98% | 99% | 112% | 95.1% | 103% | 111% | 108% | 89.9% | 83.8% | 99.2% | 107% | 101% | 97.8% | 95.3% | 85.8% | 102% | 95.5% | 99.4% | 101% | 93.6% | 103% | 97.7% | 108% | 109% | 94.9% | 96.4% | 90.7% | 94.5% | 95.2% | 96% | 95.4% |
| COc1cccc2cc(-c3nc([C@H]4CC[C@H](C(=O)O)CC4)n4ncnc(N)c34)[nH]c12 [OSI-027] (1 nM) | 76.9% | 87.8% | 93.8% | 118% | 100% | 96.1% | 105% | 83.6% | 110% | 95.9% | 93.9% | 90.3% | 90.7% | 85.3% | 88.9% | 96.8% | 88.8% | 86.9% | 96.3% | 91.7% | 86.8% | 97.9% | 101% | 98.7% | 92.8% | 93.9% | 101% | 90.5% | 95.5% | 88% | 91.4% | 90.1% | 95.8% | 97.1% | 102% | 95.4% | 91.1% |
